Test results from patent publication US11691972B2, “Compounds for targeted degradation of BRD9” (C4 Therapeutics, Inc., priority 2020, dated 2023).

Each molecule was assayed against T1, BRD9 (Homo sapiens, UniProt Q9H8M2) (assay: HiBiT BRD9 degradation assay in 293T.166 (BRD9-HiBiT) cells). Conditions: Table 1; 293T.166 cells, 2.0 hours; class symbols; read-out: HiBiT-Degradation 293T.166 BRD9 2.0 hours (DC50).
T1 sequence (Q9H8M2 1-597): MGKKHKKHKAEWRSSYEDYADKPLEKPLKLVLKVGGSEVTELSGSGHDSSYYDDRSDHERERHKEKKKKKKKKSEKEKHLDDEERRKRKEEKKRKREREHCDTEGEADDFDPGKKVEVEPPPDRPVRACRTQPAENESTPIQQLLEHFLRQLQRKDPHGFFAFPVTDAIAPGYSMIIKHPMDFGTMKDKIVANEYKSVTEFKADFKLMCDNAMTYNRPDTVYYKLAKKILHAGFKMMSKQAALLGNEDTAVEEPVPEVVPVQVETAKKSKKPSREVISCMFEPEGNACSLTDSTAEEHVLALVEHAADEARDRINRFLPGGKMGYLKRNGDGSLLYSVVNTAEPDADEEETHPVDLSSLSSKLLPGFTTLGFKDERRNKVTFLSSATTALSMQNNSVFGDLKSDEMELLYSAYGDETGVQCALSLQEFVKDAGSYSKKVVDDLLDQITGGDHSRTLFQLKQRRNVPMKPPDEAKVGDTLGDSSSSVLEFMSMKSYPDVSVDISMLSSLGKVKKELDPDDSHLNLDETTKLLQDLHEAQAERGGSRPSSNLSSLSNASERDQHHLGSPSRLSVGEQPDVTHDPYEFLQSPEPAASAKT
Type: cell-based
Parameters: endogenously expressing BRD9 with HiBiT fusion tag via CRISPR; host or cells: 293T.166 (BRD9-HiBiT), also expressing LgBiT ectopically
Procedure, shortened: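 293T.166 cells carrying endogenous CRISPR BRD9-HiBiT and expressing LgBiT treated 2 h at 37° C. with compounds, 11-point half-log titration from 10 μM in duplicate. Remaining BRD9 measured as lytic HiBiT luminescence; untreated cells as negative control, no-reagent wells as positive control.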

DC50 [nM]	SMILES
< 100	COc1cc(-c2cn(C)c(=O)c3[nH]ncc23)cc(F)c1CN1CCC(CCC2CCN(c3ccc(NC4CCC(=O)NC4=O)cc3)CC2)CC1 (stereo not shown) [Compound 147, 3-[4-[4-[2-[1-[[2-fluoro-6-methoxy-4-(6-methyl-7-oxo-1H-pyrazolo[3,4-c]pyridin-4-yl)phenyl]methyl]-4-piperidyl]ethyl]-1-piperidyl]anilino]piperidine-2,6-dione]
< 100	COc1cc(-c2cn(C)c(=O)c3[nH]ncc23)cc(Cl)c1CN1CCC(CCC2CCN(c3ccc(NC4CCC(=O)NC4=O)cc3F)CC2)CC1 (stereo not shown) [Compound 148]
< 100	COc1cc(-c2cn(C)c(=O)c3cnccc23)cc(Cl)c1CN1CCC(CCC2CCN(c3ccc(NC4CCC(=O)NC4=O)cc3C(F)(F)F)CC2)CC1 (stereo not shown) [Compound 149]
< 100	COc1cc(-c2cn(C)c(=O)c3cnccc23)cc(Cl)c1CN1CCC(CCC2CCN(c3ccc(NC4CCC(=O)NC4=O)cc3F)CC2)CC1 (stereo not shown) [Compound 150]
< 100	COc1cc(-c2cn(C)c(=O)c3[nH]ncc23)cc(Cl)c1CN1CCC(F)(CCC2CCN(c3ccc(NC4CCC(=O)NC4=O)cc3F)CC2)CC1 (stereo not shown) [Compound 151, 3-[4-[4-[2-[1-[[2-chloro-6-methoxy-4-(6-methyl-7-oxo-1H-pyrazolo[3,4-c]pyridin-4-yl)phenyl]methyl]-4-fluoro-4-piperidyl]ethyl]-1-piperidyl]-3-fluoro-anilino]piperidine-2,6-dione]
< 100	COc1cc(-c2cn(C)c(=O)c3cnccc23)cc(Cl)c1CN1CCC(F)(CCC2CCN(c3ccc(NC4CCC(=O)NC4=O)cc3F)CC2)CC1 (stereo not shown) [Compound 152]
< 100	COc1cc(-c2cn(C)c(=O)c(C)c2C)cc(Cl)c1CN1CCC(F)(CCC2CCN(c3ccc(NC4CCC(=O)NC4=O)cc3F)CC2)CC1 (stereo not shown) [Compound 153]
< 100	COc1cc(-c2cn(C)c(=O)c3[nH]ncc23)cc(F)c1CN1CCC(O)(CC(=O)N2CCC(c3ccc(NC4CCC(=O)NC4=O)cc3F)CC2)CC1 (stereo not shown) [Compound 154]
< 100	COc1cc(-c2cn(C)c(=O)c3[nH]ncc23)cc(OC)c1CC1CCN(C(=O)CN2CCC(c3ccc(NC4CCC(=O)NC4=O)cc3)CC2)CC1 (stereo not shown) [Compound 155, 3-[4-[1-[2-[4-[[2,6-dimethoxy-4-(6-methyl-7-oxo-1H-pyrazolo[3,4-c]pyridin-4-yl)phenyl]methyl]-1-piperidyl]-2-oxo-ethyl]-4-piperidyl]anilino]piperidine-2,6-dione]
< 100	COc1cc(-c2cn(C)c(=O)c3[nH]ncc23)cc(F)c1CC1CCN(CC(=O)N2CCC(c3ccc(NC4CCC(=O)NC4=O)cc3)CC2)CC1 (stereo not shown) [Compound 156, 3-[4-[1-[2-[4-[[2-fluoro-6-methoxy-4-(6-methyl-7-oxo-1H-pyrazolo[3,4-c]pyridin-4-yl)phenyl]methyl]-1-piperidyl]acetyl]-4-piperidyl]anilino]piperidine-2,6-dione]
< 100	COc1cc(-c2cn(C)c(=O)c3[nH]ncc23)cc(F)c1C=C1CCN(CC(=O)N2CCC(c3ccc(NC4CCC(=O)NC4=O)cc3)CC2)CC1 (stereo not shown) [Compound 157, 3-[4-[1-[2-[4-[[2-fluoro-6-methoxy-4-(6-methyl-7-oxo-1H-pyrazolo[3,4-c]pyridin-4-yl)phenyl]methylene]-1-piperidyl]acetyl]-4-piperidyl]anilino]piperidine-2,6-dione]
< 100	COc1cc(-c2cn(C)c(=O)c3cnccc23)cc(F)c1CC1CCN(C(=O)CC2CCN(c3ccc(NC4CCC(=O)NC4=O)cc3F)CC2)CC1 (stereo not shown) [Compound 158, 3-[3-fluoro-4-[4-[2-[4-[[2-fluoro-6-methoxy-4-(2-methyl-1-oxo-2,7-naphthyridin-4-yl)phenyl]methyl]-1-piperidyl]-2-oxo-ethyl]-1-piperidyl]anilino]piperidine-2,6-dione]
< 100	COc1cc(-c2cn(C)c(=O)c3[nH]ncc23)cc(OC)c1CC1CCN(C(=O)CC2CCN(c3ccc(NC4CCC(=O)NC4=O)cc3)CC2)CC1 (stereo not shown) [Compound 159]
< 100	COc1cc(-c2cn(C)c(=O)c3[nH]ncc23)cc(OC)c1CC1CCN(C(=O)CC2CCN(c3ccc(NC4CCC(=O)NC4=O)cc3C(F)(F)F)CC2)CC1 (stereo not shown) [Compound 160]
< 100	COc1cc(-c2cn(C)c(=O)c3cnccc23)cc(Cl)c1C=C1CCN(C(=O)CC2CCN(c3ccc(NC4CCC(=O)NC4=O)cc3F)CC2)CC1 (stereo not shown) [Compound 161, 3-[4-[4-[2-[4-[[2-chloro-6-methoxy-4-(2-methyl-1-oxo-2,7-naphthyridin-4-yl)phenyl]methylene]-1-piperidyl]-2-oxo-ethyl]-1-piperidyl]-3-fluoro-anilino]piperidine-2,6-dione]
< 100	COc1cc(-c2cn(C)c(=O)c(C)c2C)cc(OC)c1C=C1CCN(C(=O)CC2CCN(c3ccc(NC4CCC(=O)NC4=O)cc3F)CC2)CC1 (stereo not shown) [Compound 162]
< 100	COc1cc(-c2cn(C)c(=O)c(C)c2C)cc(Cl)c1C=C1CCN(C(=O)CC2CCN(c3ccc(NC4CCC(=O)NC4=O)cc3F)CC2)CC1 (stereo not shown) [Compound 163]
100 to 500	COc1cc(-c2cn(C)c(=O)c3[nH]ncc23)cc(F)c1CN1CCN(C(=O)Cc2c(F)cc(NC3CCC(=O)NC3=O)cc2F)CC1 (stereo not shown) [Compound 164, 3-[3,5-difluoro-4-[2-[4-[[2-fluoro-6-methoxy-4-(6-methyl-7-oxo-1H-pyrazolo[3,4-c]pyridin-4-yl)phenyl]methyl]piperazin-1-yl]-2-oxo-ethyl]anilino]piperidine-2,6-dione]
< 100	COc1cc(-c2cn(C)c(=O)c3[nH]ncc23)cc(OC)c1CNc1ccc(CC(=O)N2CCC(c3ccc(NC4CCC(=O)NC4=O)cc3)CC2)cc1 (stereo not shown) [Compound 165, 3-[4-[1-[2-[4-[[2,6-dimethoxy-4-(6-methyl-7-oxo-1H-pyrazolo[3,4-c]pyridin-4-yl)phenyl]methylamino]phenyl]acetyl]-4-piperidyl]anilino]piperidine-2,6-dione]
< 100	COc1cc(-c2cn(C)c(=O)c3[nH]ncc23)cc(OC)c1CNc1cccc(C(=O)N2CCC(c3ccc(NC4CCC(=O)NC4=O)cc3)CC2)c1 (stereo not shown) [Compound 166, 3-[4-[1-[3-[[2,6-dimethoxy-4-(6-methyl-7-oxo-1H-pyrazolo[3,4-c]pyridin-4-yl)phenyl]methylamino]benzoyl]-4-piperidyl]anilino]piperidine-2,6-dione]
< 100	COc1cc(-c2cn(C)c(=O)c3[nH]ncc23)cc(OC)c1CN1CCN(C(=O)Cc2ccc(-c3ccc(NC4CCC(=O)NC4=O)cc3)cc2)CC1 (stereo not shown) [Compound 167, 3-[4-[4-[2-[4-[[2,6-dimethoxy-4-(6-methyl-7-oxo-1H-pyrazolo[3,4-c]pyridin-4-yl)phenyl]methyl]piperazin-1-yl]-2-oxo-ethyl]phenyl]anilino]piperidine-2,6-dione]
< 100	COc1cc(-c2cn(C)c(=O)c3[nH]ncc23)cc(OC)c1CC1CCN(CCN2CCC(c3ccc(NC4CCC(=O)NC4=O)cc3)CC2)CC1 (stereo not shown) [Compound 168, 3-[4-[1-[2-[4-[[2,6-dimethoxy-4-(6-methyl-7-oxo-1H-pyrazolo[3,4-c]pyridin-4-yl)phenyl]methyl]-1-piperidyl]ethyl]-4-piperidyl]anilino]piperidine-2,6-dione]
< 100	COc1cc(-c2cn(C)c(=O)c3[nH]ncc23)cc(Cl)c1CN1CCC(C(=O)Nc2ccc(NC3CCC(=O)NC3=O)cc2F)CC1 (stereo not shown) [Compound 169, 1-[[2-chloro-6-methoxy-4-(6-methyl-7-oxo-1H-pyrazolo[3,4-c]pyridin-4-yl)phenyl]methyl]-N-[4-[(2,6-dioxo-3-piperidyl)amino]-2-fluoro-phenyl]piperidine-4-carboxamide]
< 100	COc1cc(-c2cn(C)c(=O)c3[nH]ncc23)cc(OC)c1CNc1ccc2c(c1)CCN(C(=O)C1CCN(c3ccc(NC4CCC(=O)NC4=O)cc3)CC1)C2 (stereo not shown) [Compound 170]
< 100	COc1cc(-c2cn(C)c(=O)c3[nH]ncc23)cc(Cl)c1CN1CCc2c(cccc2NC2CCN(c3ccc(NC4CCC(=O)NC4=O)cc3)CC2)C1 (stereo not shown) [Compound 171, 3-[4-[4-[[2-[[2-chloro-6-methoxy-4-(6-methyl-7-oxo-1H-pyrazolo[3,4-c]pyridin-4-yl)phenyl]methyl]-3,4-dihydro-1H-isoquinolin-5-yl]amino]-1-piperidyl]anilino]piperidine-2,6-dione]
< 100	COc1cc(-c2cn(C)c(=O)c3cnccc23)cc(Cl)c1CN1CCC(N2CCN(c3ccc(NC4CCC(=O)NC4=O)cc3F)CC2)C(F)(F)C1 (stereo not shown) [Compound 177, 3-[4-[4-[1-[[2-chloro-6-methoxy-4-(2-methyl-1-oxo-2,7-naphthyridin-4-yl)phenyl]methyl]-3,3-difluoro-4-piperidyl]piperazin-1-yl]-3-fluoro-anilino]piperidine-2,6-dione]
< 100	COc1cc(-c2cn(C)c(=O)c3[nH]ncc23)cc(OC)c1CN1CCC(N2CCN(c3ccc(NC4CCC(=O)NC4=O)cc3F)CC2)C(F)(F)C1 (stereo not shown) [Compound 182]
< 100	COc1cc(-c2cn(C)c(=O)c3[nH]ncc23)cc(Cl)c1CN1CCC(N2CCN(c3ccc(NC4CCC(=O)NC4=O)cc3F)CC2)C(F)(F)C1 (stereo not shown) [Compound 183]
